Our source for the EC50 values is US12324802B2, “Modulators of cystic fibrosis transmembrane conductance regulator” (Vertex Pharmaceuticals Incorporated, priority 2020, dated 2025).

A value given as a limit tells only on which side of the number the result lay.

Broadly, the EC50 is the concentration that produces a half-maximal response.

This assay concerns the target T1, CFTR (F508del/MF-HBE cells) (Homo sapiens, UniProt P13569, DEL508-508).
T1 construct: human bronchial epithelial (HBE) cells derived from CF subjects heterozygous for F508del and a minimal function CFTR mutation; endogenous in cells; host or cells: primary human bronchial epithelial cells from CF subjects (F508del/MF genotype)
Put plainly: Ussing chamber assay of CFTR-mediated short-circuit currents (identification of potentiator compounds). In kind it is cell-based. The settings on record: CFTR-mediated ISC in F508del/MF-HBE cells; incubated 18-24 hours at 37° C. with 10 μM (14S)-8-[3-(2-{dispiro[2.0.2.1]heptan-7-yl}ethoxy)-1H-pyrazol-1-yl]-...-2,2,4-trione, 20% human serum. In a few lines:
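Short-circuit current was voltage-clamped at 0 mV and 37 °C in pH 7.4 HEPES buffers, with amiloride (30 μM) on the apical side. The CFTR component was defined as forskolin (20 μM) peak minus residual current after BPO/GlyH-101/CFTRinh-172 at 20 μM each. Cells had been pretreated 18–24 h with potentiator concentrations and 10 μM corrector in 20% human serum, kept throughout the measurement.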

T1 sequence (P13569 with tags, fused parts or gaps DEL508-508): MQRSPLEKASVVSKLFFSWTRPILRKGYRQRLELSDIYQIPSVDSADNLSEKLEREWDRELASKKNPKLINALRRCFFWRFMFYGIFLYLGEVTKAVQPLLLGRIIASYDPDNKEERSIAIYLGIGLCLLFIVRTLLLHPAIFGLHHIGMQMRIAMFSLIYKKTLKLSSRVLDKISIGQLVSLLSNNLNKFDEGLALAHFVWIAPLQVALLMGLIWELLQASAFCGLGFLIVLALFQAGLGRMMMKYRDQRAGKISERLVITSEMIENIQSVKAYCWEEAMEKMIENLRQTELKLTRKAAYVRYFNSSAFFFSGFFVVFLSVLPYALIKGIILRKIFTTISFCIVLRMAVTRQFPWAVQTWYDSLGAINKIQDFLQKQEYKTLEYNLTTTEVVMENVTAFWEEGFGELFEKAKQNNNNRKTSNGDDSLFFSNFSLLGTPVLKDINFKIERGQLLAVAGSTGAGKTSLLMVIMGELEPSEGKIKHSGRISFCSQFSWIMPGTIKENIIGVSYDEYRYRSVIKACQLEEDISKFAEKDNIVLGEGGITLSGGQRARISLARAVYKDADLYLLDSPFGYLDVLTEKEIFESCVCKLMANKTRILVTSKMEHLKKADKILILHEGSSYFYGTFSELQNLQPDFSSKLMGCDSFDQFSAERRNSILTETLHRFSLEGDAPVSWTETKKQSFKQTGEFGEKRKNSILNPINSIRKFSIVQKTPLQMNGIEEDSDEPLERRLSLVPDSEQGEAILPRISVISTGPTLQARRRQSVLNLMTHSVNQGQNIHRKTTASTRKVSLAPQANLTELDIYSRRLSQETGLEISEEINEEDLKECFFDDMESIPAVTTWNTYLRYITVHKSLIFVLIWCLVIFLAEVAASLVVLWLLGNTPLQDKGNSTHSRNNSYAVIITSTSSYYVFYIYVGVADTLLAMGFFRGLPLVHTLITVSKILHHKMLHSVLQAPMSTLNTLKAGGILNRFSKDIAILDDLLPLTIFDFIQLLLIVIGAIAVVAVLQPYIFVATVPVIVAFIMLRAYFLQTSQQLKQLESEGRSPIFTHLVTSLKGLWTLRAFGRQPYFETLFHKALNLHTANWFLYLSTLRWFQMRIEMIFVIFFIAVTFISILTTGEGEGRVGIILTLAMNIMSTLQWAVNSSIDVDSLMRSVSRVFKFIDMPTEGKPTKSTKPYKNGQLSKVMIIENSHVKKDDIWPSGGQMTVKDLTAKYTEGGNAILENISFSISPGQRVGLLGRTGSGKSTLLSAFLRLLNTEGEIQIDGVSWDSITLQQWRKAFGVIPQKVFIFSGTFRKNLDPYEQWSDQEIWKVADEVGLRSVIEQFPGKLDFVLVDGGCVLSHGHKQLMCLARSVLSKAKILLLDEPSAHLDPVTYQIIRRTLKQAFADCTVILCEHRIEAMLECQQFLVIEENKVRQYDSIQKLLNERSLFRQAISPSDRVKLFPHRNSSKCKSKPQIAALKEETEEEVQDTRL

Consider `CCOC(=O)C1CCCCCC(O)(C(F)(F)F)C2=NN=C(O2)c2nc(c(C(F)(F)F)cc2N)N1` (single isomer, unassigned) [Compound 94, ethyl 17-amino-6-hydroxy-6,15-bis(trifluoromethyl)-19-oxa-3,4,13,18-tetrazatricyclo[12.3.1.12,5]nonadeca-1(18),2,4,14,16-pentaene-12-carboxylate], for which the EC50 is below 500 nM.

In the case of `CCOC(=O)C1CCCCCC(O)(C(F)(F)F)C2=NN=C(O2)c2nc(c(C(F)(F)F)cc2N)N1` (single isomer, unassigned) [Compound 95, ethyl 17-amino-6-hydroxy-6,15-bis(trifluoromethyl)-19-oxa-3,4,13,18-tetrazatricyclo[12.3.1.12,5]nonadeca-1(18),2,4,14,16-pentaene-12-carboxylate], the half-maximal effective concentration (EC50) is below 500 nM.

Consider `CCOC(=O)C1CCCCCC(O)(C(F)(F)F)C2=NN=C(O2)c2nc(c(C(F)(F)F)cc2N)N1` (single isomer, unassigned) [Compound 97, ethyl 17-amino-6-hydroxy-6,15-bis(trifluoromethyl)-19-oxa-3,4,13,18-tetrazatricyclo[12.3.1.12,5]nonadeca-1(18),2,4,14,16-pentaene-12-carboxylate], for which the EC50 was above 1000 nM.

For `CP(C)(=O)c1cc(N)c2nc1N1CCC[C@H]1CCCCCC(O)(C(F)(F)F)C1=NN=C2O1` (single isomer, unassigned) [Compound 98], the concentration giving a half-maximal response (EC50) is above 1000 nM.

`CP(C)(=O)c1cc(N)c2nc1N1CCC[C@H]1CCCCCC(O)(C(F)(F)F)C1=NN=C2O1` (single isomer, unassigned) [Compound 99]: the concentration for a half-maximal effect (EC50) was above 1000 nM.

Take `Nc1cc(C(F)(F)F)c2nc1-c1nnc(o1)C(O)(CO)CCCCC[C@@H]1CCCN21` (single isomer, unassigned) [Compound 100]: the concentration giving a half-maximal response (EC50) is 500 to 1000 nM.

As to `Nc1cc(C(F)(F)F)c2nc1-c1nnc(o1)C(O)(CO)CCCCC[C@@H]1CCCN21` (single isomer, unassigned) [Compound 101], the EC50 is below 500 nM.

On to `Nc1cc(C(F)(F)F)c2nc1-c1nnc(o1)C(O)(C(F)(F)F)CCCCCC(CO)N2` (single isomer, unassigned) [Compound 102, 17-amino-12-(hydroxymethyl)-6,15-bis(trifluoromethyl)-19-oxa-3,4,13,18-tetrazatricyclo[12.3.1.12,5]nonadeca-1(18),2,4,14,16-pentaen-6-ol], for which the EC50 is below 500 nM.

As for `Nc1cc(C(F)(F)F)c2nc1-c1nnc(o1)C(O)(C(F)(F)F)CCCCCC(CO)N2` (single isomer, unassigned) [Compound 103, 17-amino-12-(hydroxymethyl)-6,15-bis(trifluoromethyl)-19-oxa-3,4,13,18-tetrazatricyclo[12.3.1.12,5]nonadeca-1(18),2,4,14,16-pentaen-6-ol], the half-maximal effective concentration (EC50) is below 500 nM.

Regarding `Nc1cc(C(F)(F)F)c2nc1-c1nnc(o1)C(O)(C(F)(F)F)CCCCCC(CO)N2` (single isomer, unassigned) [Compound 104, 17-amino-12-(hydroxymethyl)-6,15-bis(trifluoromethyl)-19-oxa-3,4,13,18-tetrazatricyclo[12.3.1.12,5]nonadeca-1(18),2,4,14,16-pentaen-6-ol], the EC50 was below 500 nM.

As to `Nc1cc(C(F)(F)F)c2nc1-c1nnc(o1)C(O)(C(F)(F)F)CCCCCC(CO)N2` (single isomer, unassigned) [Compound 105, 17-amino-12-(hydroxymethyl)-6,15-bis(trifluoromethyl)-19-oxa-3,4,13,18-tetrazatricyclo[12.3.1.12,5]nonadeca-1(18),2,4,14,16-pentaen-6-ol], the concentration for a half-maximal effect (EC50) is above 1000 nM.

On to `Nc1cc(C(F)(F)F)c2nc1-c1nnc(o1)C(O)(C(F)(F)F)CCCCCCC(=O)N2` (single isomer, unassigned) [Compound 106, 18-Amino-6-hydroxy-6,16-bis(trifluoromethyl)-20-oxa-3,4,14,19-tetrazatricyclo[13.3.1.12,5]icosa-1(19),2,4,15,17-pentaen-13-one], for which the half-maximal effective concentration (EC50) is below 500 nM.

As to `Nc1cc(C(F)(F)F)c2nc1-c1nnc(o1)C(O)(C(F)(F)F)CCCCCCC(=O)N2` (single isomer, unassigned) [Compound 107, 18-amino-6-hydroxy-6,16-bis(trifluoromethyl)-20-oxa-3,4,14,19-tetrazatricyclo[13.3.1.12,5]icosa-1(19),2,4,15,17-pentaen-13-one], the EC50 is above 1000 nM.

For the compound `Nc1cc(C(F)(F)F)c2nc1-c1nnc(o1)C(O)(C(F)(F)F)CCCCCC(=O)N2` (single isomer, unassigned) [Compound 108, 17-amino-6-hydroxy-6,15-bis(trifluoromethyl)-19-oxa-3,4,13,18-tetrazatricyclo[12.3.1.12,5]nonadeca-1(18),2,4,14,16-pentaen-12-one], the EC50 was below 500 nM.

On to `Nc1cc(C(F)(F)F)c2nc1-c1nnc(o1)C(O)(C(F)(F)F)CCCCCC(=O)N2` (single isomer, unassigned) [Compound 109, 17-amino-6-hydroxy-6,15-bis(trifluoromethyl)-19-oxa-3,4,13,18-tetrazatricyclo[12.3.1.12,5]nonadeca-1(18),2,4,14,16-pentaen-12-one], for which the concentration giving a half-maximal response (EC50) was above 1000 nM.

`Nc1cc(C(F)(F)F)c2nc1-c1nnc(o1)C(O)(C(F)(F)F)CCCCCC1CCS(=O)(=O)N21` (single isomer, unassigned) [Compound 110, 20-amino-6-hydroxy-6,18-bis(trifluoromethyl)-22-oxa-15λ6-thia-3,4,16,21-tetraazatetracyclo[15.3.1.12,5.012,16]docosa-1(21),2,4,17,19-pentaene-15,15-dione]: the EC50 was below 500 nM.

Turning to `Nc1cc(C(F)(F)F)c2nc1-c1nnc(o1)C(O)(C(F)(F)F)CCCCCC1CCS(=O)(=O)N21` (single isomer, unassigned) [Compound 111, 20-amino-6-hydroxy-6,18-bis(trifluoromethyl)-22-oxa-15λ6-thia-3,4,16,21-tetraazatetracyclo[15.3.1.12,5.012,16]docosa-1(21),2,4,17,19-pentaene-15,15-dione], the half-maximal effective concentration (EC50) was above 1000 nM.

Turning to `Nc1cc(C(F)(F)F)c2nc1-c1nnc(o1)C(O)(C(F)(F)F)CCCCCC1CCS(=O)(=O)N21` (single isomer, unassigned) [Compound 112, 20-amino-6-hydroxy-6,18-bis(trifluoromethyl)-22-oxa-15λ6-thia-3,4,16,21-tetraazatetracyclo[15.3.1.12,5.012,16]docosa-1(21),2,4,17,19-pentaene-15,15-dione], the half-maximal effective concentration (EC50) is 500 to 1000 nM.

Regarding `Nc1cc(C(F)(F)F)c2nc1-c1nnc(o1)C(O)(C(F)(F)F)CCCCCC1CCS(=O)(=O)N21` (single isomer, unassigned) [Compound 113, 20-amino-6-hydroxy-6,18-bis(trifluoromethyl)-22-oxa-15λ6-thia-3,4,16,21-tetraazatetracyclo[15.3.1.12,5.012,16]docosa-1(21),2,4,17,19-pentaene-15,15-dione], the EC50 was above 1000 nM.

Take `COc1cc(N)c2nc1N1CCC[C@H]1CCCCCC(O)(C(F)(F)F)C1=NN=C2O1` (single isomer, unassigned) [Compound 114]: the EC50 is below 500 nM.

In the case of `COc1cc(N)c2nc1N1CCC[C@H]1CCCCCC(O)(C(F)(F)F)C1=NN=C2O1` (single isomer, unassigned) [Compound 115], the 50% effective concentration (EC50) was above 1000 nM.

In the case of `Nc1cc(C(F)(F)F)c2nc1-c1nnc(o1)C(O)(C(F)(F)F)CCCCC[C@@H]1COCC(=O)N21` (single isomer, unassigned) [Compound 116], the concentration for a half-maximal effect (EC50) was below 500 nM.
